In the NIST ThermoML archive (doi:10.1021/je400917j):

Assay: xn = mol fraction of the nth substance listed
Details: 101 kPa, Liquid; for mass density: Vibrating tube method

CC(=O)N(C)C [N,N-dimethylethanamide] + CCC(C)O
Details | mass density, 298.15 K [kg/m3] | mass density, 303.15 K [kg/m3] | mass density, 308.15 K [kg/m3] | mass density, 313.15 K [kg/m3] | viscosity, 298.15 K [mPa·s] | viscosity, 303.15 K [mPa·s] | viscosity, 308.15 K [mPa·s] | viscosity, 313.15 K [mPa·s]
x1 = 0.0812 | 813.5 | 808.9 | 804.1 | 799.4 | 2.57 | 2.19 | 1.89 | 1.62
x1 = 0.1602 | 823.6 | 818.7 | 813.6 | 808.6 | 2.16 | 1.88 | 1.65 | 1.44
x1 = 0.2401 | 833.9 | 828.7 | 823.7 | 818.1 | 1.81 | 1.61 | 1.45 | 1.27
x1 = 0.3499 | 848.2 | 842.6 | 837.1 | 831.6 | 1.45 | 1.35 | 1.25 | 1.12
x1 = 0.4355 | 859.4 | 853.8 | 848 | 842.5 | 1.27 | 1.21 | 1.14 | 1.03
x1 = 0.56 | 876 | 870.3 | 864.7 | 859 | 1.14 | 1.09 | 1.02 | 0.93
x1 = 0.65 | 888.1 | 882.5 | 876.8 | 871.4 | 1.08 | 1.03 | 0.95 | 0.88
x1 = 0.7398 | 900.3 | 894.9 | 890.2 | 884.2 | 1.03 | 0.98 | 0.91 | 0.84
x1 = 0.8498 | 915.4 | 910.3 | 906.1 | 900.3 | 0.99 | 0.93 | 0.86 | 0.8
x1 = 0.9389 | 927.8 | 923.1 | 918.9 | 914 | 0.96 | 0.91 | 0.82 | 0.77
x1 = 1 | 936.5 | 932 | 927.8 | 923.5 | 0.94 | 0.87 | 0.8 | 0.75
